pIC50: −log10 of the molar value.
Target: T1, C5aR (Homo sapiens, UniProt P21730)
T1 construct: U937 cells are a monocytic cell line which express C5aR; host or cells: U937 cells (cAMP treated) or isolated neutrophils
T1 sequence (P21730 1-350): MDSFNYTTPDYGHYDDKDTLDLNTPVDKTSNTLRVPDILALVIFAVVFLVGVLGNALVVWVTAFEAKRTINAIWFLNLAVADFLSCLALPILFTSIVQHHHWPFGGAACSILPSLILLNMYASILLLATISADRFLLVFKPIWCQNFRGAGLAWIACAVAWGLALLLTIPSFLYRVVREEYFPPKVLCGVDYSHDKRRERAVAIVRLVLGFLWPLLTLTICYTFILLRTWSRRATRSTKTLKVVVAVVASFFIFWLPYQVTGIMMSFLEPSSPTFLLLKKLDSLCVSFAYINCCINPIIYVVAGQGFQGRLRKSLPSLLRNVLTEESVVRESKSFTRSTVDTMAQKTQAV
Experiment: chemotaxis assay (C5aR mediated migration)
Assay type: cell-based
Conditions: migration of U937 or neutrophil cells toward C5a (0.03 nM), 1.5 hours at 37° C., read-out: Mig IC50
Method: U937 cells are a monocytic cell line which express C5aR, and are available from ATCC (VA). […] Cells were grown under 5% CO2/95% air, 100% humidity at 37° C. and subcultured twice weekly at 1:6 (cells were cultured at a density range of 1×10^5 to 2×10^6 cells/mL) and harvested at 1×10^6 cells/mL. Prior to assay, cells are treated overnight with 0.5 mM of cyclic AMP (Sigma, Ohio) and washed once prior to use. cAMP treated U937 cells can be used in C5aR ligand binding and functional assays.
Optionally, human or murine neutrophils can be used to assay for compound activity. Neutrophils may be isolated from fresh human blood using density separation and centrifugation. Briefly, whole blood is incubated with equal parts 3% dextran and allowed to separate for 45 minutes. After separation, the top layer is layered on top of 15 mls of Ficoll (15 mls of Ficoll for every 30 mls of blood suspension) and centrifuged for 30 minutes at 400×g with no brake. The pellet at the bottom of the tube is then isolated and resuspended into PharmLyse RBC Lysis Buffer (BD Biosciences, San Jose, Calif.) after which the sample is again centrifuged for 10 minutes at 400×g with brake. The remaining cell pellet is resuspended as appropriate and consists of isolated neutrophils.
Optionally, compounds may be further assayed for their ability to inhibit chemotaxis in cells. Chemotaxis assays are performed using 5 μm pore polycarbonate, polyvinylpyrrolidone-coated filters in 96-well chemotaxis chambers (Neuroprobe; Gaithersburg, Md.) using chemotaxis buffer (Hank's balanced salt solution (HBSS) and 1% FBS). C5aR ligands (i.e., C5a, R&D Systems; Minneapolis, Minn.) are use to evaluate compound mediated inhibition of C5aR mediated migration. Other chemokines (i.e., SDF-1α; R&D Systems; Minneapolis, Minn.) are used as specificity controls. […] The chambers are incubated 1.5 hours at 37° C., and the number of cells in the lower chamber quantified either by direct cell counts in five high powered fields per well or by the CyQuant assay (Molecular Probes), a fluorescent dye method that measures nucleic acid content and microscopic observation.

pIC50, > 8.30:
CCc1cccc(CC)c1-n1nc2c(c1-c1cc(F)c(OC)c3[nH]cc(Cl)c13)CN(c1ncc(C(F)(F)F)cn1)CC2 [Example 1.032]
CCc1cccc(CC)c1-n1nc2c(c1-c1cc(F)c(C)c3[nH]ccc13)CN(c1ncc(C(F)(F)F)cn1)CC2 [Example 1.093]
CCc1cccc(CC)c1-n1nc2c(c1-c1ccc(C(=O)OC)c3[nH]ccc13)CN(c1ncc(C(F)(F)F)cc1F)CC2 [Example 1.172]
CCc1cccc(CC)c1-n1nc2c(c1-c1c(F)cc(Cl)c3[nH]ccc13)CN(c1ccc(C(C)C)cn1)CC2 [Example 1.109]
CCc1cccc(CC)c1-n1nc2c(c1-c1cc(F)c(C)c3[nH]ccc13)CN(c1ncc(C(F)(F)F)cc1F)CC2 [Example 1.123]
Cc1cccc(C)c1-n1nc2c(c1-c1c(F)cc(C)c3[nH]ccc13)CN(c1ncc(C(F)(F)F)cn1)CC2 [Example 1.092]
CCc1cccc(CC)c1-n1nc2c(c1-c1cc(Cl)c(OC)c3[nH]ccc13)CN(c1ncc(C(F)(F)F)cn1)CC2 [Example 1.044]
CCc1cccc(CC)c1-n1nc2c(c1-c1ccc(Cl)c3[nH]ccc13)CN(c1ncc(C)cn1)CC2 [Example 1.156]
CCc1cccc(CC)c1-n1nc2c(c1-c1c(F)cc(Cl)c3[nH]ccc13)CN(c1ncc(C(=O)N3CCCC3)cn1)CC2 [Example 1.076]
CCc1cccc(CC)c1-n1nc2c(c1-c1ccc(Cl)c3[nH]ccc13)CN(c1ncc(C(C)C)cn1)CC2 [Example 1.164]
CCc1cccc(CC)c1-n1nc2c(c1-c1ccc(F)c3[nH]ccc13)CN(c1ncc(Cl)cn1)CC2 [Example 1.184]
CCc1cccc(CC)c1-n1nc2c(c1-c1ccc3[nH]ccc3c1)CN(Cc1cc(F)ccc1Cl)CC2 [Example 1.230]
CCc1cccc(CC)c1-n1nc2c(c1-c1ccc(C)c3[nH]ccc13)CN(c1ccc(C(F)(F)F)cn1)CC2 [Example 1.142]
CCc1cccc(CC)c1-n1nc2c(c1-c1c(F)cc(C)c3[nH]ccc13)CN(c1ccc(C(C)C)cn1)CC2 [Example 1.128]
CCc1cccc(CC)c1-n1nc2c(c1-c1ccc(Cl)c3[nH]ccc13)CN(c1cnc(C(F)(F)F)cn1)CC2 [Example 1.058]
CCc1cccc(CC)c1-n1nc2c(c1-c1ccc(Cl)c3[nH]ccc13)CN(c1nc(C)cc(C)n1)CC2 [Example 1.148]
CCc1cccc(CC)c1-n1nc2c(c1-c1c(F)cc(CO)c3[nH]ccc13)CN(c1ncc(C(F)(F)F)cc1F)CC2 [Example 1.104]
Cc1cccc(OCC(C)C)c1-n1nc2c(c1-c1ccc3[nH]ccc3c1)CN(Cc1ccccc1C(F)(F)F)CC2 [Example 1.235]
CCc1cccc(CC)c1-n1nc2c(c1-c1c(F)cc(CO)c3[nH]ccc13)CN(c1ncc(C(F)(F)F)cn1)CC2 [Example 1.101]
CCc1cccc(CC)c1-n1nc2c(c1-c1ccc(C)c3[nH]ccc13)CN(c1ncc(C(F)(F)F)cn1)CC2 [Example 1.140]
CCc1cccc(CC)c1-n1nc2c(c1-c1ccc(OC)c3[nH]ncc13)CN(c1ncc(C(F)(F)F)cn1)CC2 [Example 1.053]
CCc1cccc(CC)c1-n1nc2c(c1-c1ccc(Cl)c3[nH]ccc13)CN(c1ncc(F)cc1Cl)CC2 [Example 1.159]
CCc1cccc(CC)c1-n1nc2c(c1-c1ccc(CO)c3[nH]ccc13)CN(c1ccc(C(F)(F)F)cn1)CC2 [Example 1.171]
CCc1cccc(CC)c1-n1nc2c(c1-c1cc(F)c(CO)c3[nH]cnc13)CN(c1ncc(C(F)(F)F)cn1)CC2 [Example 1.030]
CCc1cccc(CC)c1-n1nc2c(c1-c1c(F)cc(C)c3[nH]ccc13)CN(c1ncc(C(F)(F)F)cc1F)CC2 [Example 1.150]
CCc1cccc(CC)c1-n1nc2c(c1-c1ccc3[nH]ccc3c1)CN(Cc1cc(Cl)ccc1Cl)CC2 [Example 1.227]
CCc1cccc(CC)c1-n1nc2c(c1-c1ccc(F)c3[nH]ccc13)CN(c1ncc(C3CC3)cc1F)CC2 [Example 1.175]
CCc1cccc(CC)c1-n1nc2c(c1-c1ccc(Cl)c3[nH]ccc13)CN(c1ncc(C(F)(F)F)cc1C)CC2 [Example 1.088]

pIC50, 6.30 to 7.30:
CCc1cccc(CC)c1-n1nc2c(c1-c1ccc3[nH]cnc3c1Cl)CN(c1ncc(C(F)(F)F)cn1)CC2 [Example 1.009]
CCc1cccc(CC)c1-n1nc2c(c1-c1cncc3[nH]ccc13)CN(c1ncc(C(F)(F)F)cn1)CC2 [Example 1.022]
Cc1cccc(C)c1-n1nc2c(c1-c1cc(Cl)c3[nH]ccc3c1)CN(c1ncc(Cl)cc1Cl)CC2 [Example 1.191]
CCc1cccc(CC)c1-n1nc2c(c1-c1cc(F)c(OC)c3[nH]ccc13)C(=O)N(c1ncc(C(F)(F)F)cn1)CC2 [Example 1.033]
CCc1cccc(CC)c1-n1nc2c(c1-c1cccc3[nH]c(C(F)(F)F)nc13)CN(c1ncc(C(F)(F)F)cn1)CC2 [Example 1.042]
COc1cccc(C)c1-n1nc2c(c1-c1ccc3[nH]ccc3c1)CN(C(=O)OC(C)(C)C)CC2 [Example 1.134]
Cc1cccc(C)c1-n1nc2c(c1-c1cc(C)c3[nH]ccc3c1)CN(c1ncc(Cl)cc1Cl)CC2 [Example 1.189]
CCc1cccc(CC)c1-n1nc2c(c1-c1ccc3[nH]ccc3c1)CN(C1CCOCC1)CC2 [Example 1.208]

pIC50, < 6.30:
CCc1cccc(CC)c1-n1nc2c(c1-c1cnc3[nH]ccc3c1)CN(c1ncc(C(F)(F)F)cn1)CC2 [Example 1.011]

pIC50, 7.30 to 8.30:
CCc1cccc(CC)c1-n1nc2c(c1-c1ncnc3[nH]ccc13)CN(c1ncc(C(F)(F)F)cn1)CC2 [Example 1.026]
CCc1cccc(CC)c1-n1nc2c(c1-c1ccc3[nH]ccc3c1)CN(C(C)C(C)C)CC2 (stereo not drawn) [Example 1.211]
Cc1cccc(OCC(C)C)c1-n1nc2c(c1-c1cccc3[nH]ccc13)CN(Cc1ccccc1C(F)(F)F)CC2 [Example 1.222]
CCc1cccc(CC)c1-n1nc2c(c1-c1ccc(OC)c3[nH]ccc13)CN(c1ncc(C(F)(F)F)cc1F)CC2 [Example 1.089]
CCc1cccc(CC)c1-n1nc2c(c1-c1ccc(Cl)c3[nH]ccc13)CN(c1ncc(C)c(CO)n1)CC2 [Example 1.072]
Cc1cccc(C)c1-n1nc2c(c1-c1ccc3[nH]ccc3c1)CN(CC(C)(C)C)CC2 [Example 1.239]
CCc1cccc(CC)c1-n1nc2c(c1-c1cc(F)c(F)c3[nH]ccc13)CN(c1ncc(C(F)(F)F)cc1F)CC2 [Example 1.120]
Cc1cccc(OCC(C)C)c1-n1nc2c(c1-c1ccc3[nH]ccc3c1)CN(c1nc(C(C)C)ns1)CC2 [Example 1.210]
Cc1cccc(OCC(C)C)c1-n1nc2c(c1-c1cccc3[nH]ccc13)CN(c1ncc(C(C)C)cc1F)CC2 [Example 1.198]
Cc1cccc(C)c1-n1nc2c(c1-c1c(F)cc(CO)c3[nH]ccc13)CN(c1ncc(C(F)(F)F)cn1)CC2 [Example 1.090]
Cc1cccc(C)c1-n1nc2c(c1-c1ccc(Cl)c3[nH]ncc13)CN(c1ncc(C(F)(F)F)cn1)CC2 [Example 1.049]
Cc1cccc(OCC(C)C)c1-n1nc2c(c1-c1ccc3[nH]ccc3c1)CN(c1ncc(C(F)(F)F)cc1Cl)CC2 [Example 1.216]
COc1c(F)cc(-c2c3c(nn2-c2c(C)cccc2C)CCN(c2ncc(C(F)(F)F)cn2)C3)c2cc[nH]c12 [Example 1.004]
Cc1cccc(C)c1-n1nc2c(c1-c1ccc(Cl)c3[nH]ccc13)CN(c1ncc(C(C)C)cc1F)CC2 [Example 1.153]
CCc1cccc(CC)c1-n1nc2c(c1-c1nccc3[nH]ncc13)CN(c1ncc(C(F)(F)F)cn1)CC2 [Example 1.015]
CCc1cccc(CC)c1-n1nc2c(c1-c1cc(F)c(F)c3[nH]ccc13)CN(c1ncc(C(C)C)cn1)CC2 [Example 1.117]
Cc1cccc(C)c1-n1nc2c(c1-c1ccc3[nH]ccc3c1)CN(C(=O)OC(C)(C)C)CC2 [Example 1.240]

From US11384079B2, “6-5 fused rings as C5a inhibitors” (CHEMOCENTRYX, INC., priority 2017, dated 2022)
